According to patent US7022716B2, “Cyclic amine phenyl beta-3 adrenergic receptor agonists” (Wyeth, priority 2000, dated 2006):
Where a name gives a salt, the structure may show the parent alone.

Target: T1, human β3 adrenergic receptor (Homo sapiens, UniProt P13945)
T1 construct: Full length β3 AR clones (402 amino acids) containing the last 6 amino acids of hβ3-AR are prepared; expressed in transfected cells; host or cells: CHO (Chinese hamster ovary) cells
Assay: cAMP (SPA) response in CHO cells transfected with human β3 adrenergic receptor
Type: cell-based
Set-up: key: fraction of maximal isoproterenol (10^-5 M) response
Conditions: maximal response relative to maximal response of isoproterenol at 10^-5 M
Outline: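 Reactions were stopped with 0.2N HCl and neutralised, and cAMP was measured by SPA. Activity is expressed as percent of the maximal 10^−5 M isoproterenol response.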

T1 sequence (P13945 whole entry): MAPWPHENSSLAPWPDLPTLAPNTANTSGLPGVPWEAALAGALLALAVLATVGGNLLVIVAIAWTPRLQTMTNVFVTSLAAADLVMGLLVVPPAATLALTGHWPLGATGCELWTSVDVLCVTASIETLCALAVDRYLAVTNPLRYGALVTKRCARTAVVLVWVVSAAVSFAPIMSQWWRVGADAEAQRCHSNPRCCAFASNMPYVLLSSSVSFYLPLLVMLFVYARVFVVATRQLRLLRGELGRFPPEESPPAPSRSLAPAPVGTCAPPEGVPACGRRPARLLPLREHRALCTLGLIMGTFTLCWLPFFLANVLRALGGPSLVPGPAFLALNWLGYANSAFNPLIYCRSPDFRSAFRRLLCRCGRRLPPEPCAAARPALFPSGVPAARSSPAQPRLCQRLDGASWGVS

Row | Compound | IA(β3)
1 | CS(=O)(=O)Nc1cc([C@@H](O)CNC2CCN(c3ccc(C(N)=O)cc3)CC2)ccc1O [Example 190, 4-{4-[(2R)-2-Hydroxy-2-(4-hydroxy-3-methanesulfonylamino-phenyl)-ethylamino]-piperidin-1-yl}-benzamide] | 1.12
2 | O=C1NC(=O)C(Cc2ccc(N3CCC(NC[C@@H](O)c4cccnc4)CC3)cc2)S1 (stereo partly drawn) [Example 131, 5-{4-[4-((2S)-2-Hydroxy-2-pyridin-3-yl-ethylamino)-piperidin-1-yl]-benzyl}-thiazolidine-2,4-dione] | 0.52
3 | CS(=O)(=O)Nc1cc([C@@H](O)CNC2CCN(c3ccc(COCC(=O)O)cc3)CC2)ccc1O [Example 185, (4-{4-[(2R)-2-Hydroxy-2-(4-hydroxy-3-methanesulfonylamino-phenyl)-ethylamino]-piperidin-1-yl}-benzyloxy)-acetic acid] | 0.69
4 | CCCCS(=O)(=O)Nc1ccc(N2CCC(NCC(O)c3ccc(O)c(NS(C)(=O)=O)c3)CC2)cc1 (centres unmarked) [Example 295, N-(4-{4-[(2-Hydroxy-2-{4-hydroxy-3-[(methylsulfonyl)amino]phenyl}ethyl)amino]-1-piperidinyl}phenyl)-1-butanesulfonamide] | 0.87
5 | CCCCOc1ccc(S(=O)(=O)Nc2ccc(N3CCC(NCC(O)c4ccc(O)c(NS(C)(=O)=O)c4)CC3)cc2)cc1 (centres unmarked) [Example 281, 4-Butoxy-N-(4-{4-[2-hydroxy-2-(4-hydroxy-3-methanesulfonylamino-phenyl)-ethylamino]-piperidin-1-yl}-phenyl)-benzenesulfonamide] | 1.14
6 | CC(C)[C@H](NC(=O)c1ccc(N2CCC(NC[C@H](O)c3ccc(O)c(NS(C)(=O)=O)c3)CC2)cc1)C(=O)O [Example 203, (2S)-2-(4-{4-[(2R)-2-Hydroxy-2-(4-hydroxy-3-methanesulfonylamino-phenyl)-ethylamino]-piperidin-1-yl}-benzoylamino)-3-methyl-butyric acid] | 1.1
7 | CCCCOc1ccc(S(=O)(=O)Nc2ccc(N3CCC(NC[C@H](O)COc4cccc5[nH]c(=O)[nH]c45)CC3)cc2)cc1 [Example 358, 4-Butoxy-N-{4-[4-({(2S)-2-hydroxy-3-[(2-oxo-2,3-dihydro-1H-benzimidazol-4-yl)oxy]propyl}amino)-1-piperidinyl]phenyl}benzenesulfonamide] | 1.1

The remaining lines, values ahead:

Row | IA(β3) | Compound
8 | 0.87 | COC(=O)c1sccc1S(=O)(=O)Nc1ccc(N2CCC(NC[C@H](O)c3ccc(O)c(NS(C)(=O)=O)c3)CC2)cc1 [Example 320, Methyl3-[(4-{4-[((2R)-2-hydroxy-2-{4-hydroxy-3-[(methylsulfonyl)amino]-phenyl}ethyl)amino]-1-piperidinyl}anilino)sulfonyl]-2-thiophenecarboxylate]
9 | 0.99 | COc1cc(C(O)CNC2CCN(c3ccc(NS(=O)(=O)c4ccc(NC(C)=O)cc4)cc3)CC2)ccc1O (centres unmarked) [Example 267, N-(4-{[4-(4-{[2-Hydroxy-2-(4-hydroxy-3-methoxyphenyl)ethyl]amino}-1-piperidinyl)anilino]sulfonyl}phenyl)acetamide]
10 | 1.1 | CCCCc1ccc(S(=O)(=O)Nc2ccc(N3CCC(NC[C@H](O)COc4cccc5[nH]c(=O)[nH]c45)CC3)cc2)cc1 [Example 332, 4-Butyl-N-{4-[4-({(2S)-2-hydroxy-3-[(2-oxo-2,3-dihydro-1H-benzimidazol-4-yl)oxy]propyl}amino)-1-piperidinyl]phenyl}benzenesulfonamide.]
11 | 0.95 | O=C1NC(=O)C(Cc2ccc(S(=O)(=O)Nc3ccc(N4CCC(NC[C@H](O)COc5cccc6[nH]c(=O)[nH]c56)CC4)cc3)cc2)S1 (stereo partly drawn) [Example 301, 4-[(2,4-Dioxo-1,3-thiazolidin-5-yl)methyl]-N-{4-[4-({(2S)-2-hydroxy-3-[(2-oxo-2,3-dihydro-1H-benzimidazol-4-yl)oxy]propyl}amino)-1-piperidinyl]phenyl}-benzenesulfonamide]
12 | 0.35 | CC(=O)Nc1ccc(N2CC(NC[C@H](O)COc3cccc4[nH]c5ccccc5c34)C2)cc1 [Example 415, N-[4-(3-{[(2S)-3-(9H-Carbazol-4-yloxy)-2-hydroxypropyl]amino}-1-azetidinyl)phenyl]acetamide]
13 | 1 | CCCCCCNC(=O)Nc1ccc(S(=O)(=O)Nc2ccc(N3CCC(NC[C@H](O)COc4ccc(O)c5c4CCC(=O)N5)CC3)cc2)cc1 [Example 305, 4-{[(Hexylamino)carbonyl]amino}-N-{4-[4-({(2S)-2-hydroxy-3-[(8-hydroxy-2-oxo-1,2,3,4-tetrahydro-5-quinolinyl)oxy]propyl}amino)-1-piperidinyl]phenyl}benzenesulfonamide]
14 | 1.26 | O=c1[nH]c2cccc(OC[C@@H](O)CNC3CCN(c4ccc(NS(=O)(=O)c5ccc(Oc6ncc(C(F)(F)F)cc6Cl)cc5)cc4)CC3)c2[nH]1 [Example 350, 4-{[3-Chloro-5-(trifluoromethyl)-2-pyridinyl]oxy}-N-{4-[4-({(2S)-2-hydroxy-3-[(2-oxo-2,3-dihydro-1H-benzimidazol-4-yl)oxy]propyl}amino)-1-piperidinyl]phenyl}-benzenesulfonamide]
15 | 0.91 | COc1ccc(S(=O)(=O)Nc2ccc(N3CCC(NC[C@H](O)COc4cccc5[nH]c(=O)[nH]c45)CC3)cc2)cc1OC [Example 359, N-{4-[4-({(2S)-2-Hydroxy-3-[(2-oxo-2,3-dihydro-1H-benzimidazol-4-yl)oxy]-propyl}amino)-1-piperidinyl]phenyl}-3,4-dimethoxybenzenesulfonamide]
16 | 1 | CCCCCCNC(=O)Nc1ccc(S(=O)(=O)Nc2ccc(N3CCC(NC[C@H](O)COc4ccc(O)c(NS(C)(=O)=O)c4)CC3)cc2)cc1 [Example 310]

System: not given
Assay: not given
Conditions: not given

Row | Compound | melting point
17 | CS(=O)(=O)Nc1cc([C@@H](O)CNC2CCN(c3ccc(C(N)=O)cc3)CC2)ccc1O [Example 190, 4-{4-[(2R)-2-Hydroxy-2-(4-hydroxy-3-methanesulfonylamino-phenyl)-ethylamino]-piperidin-1-yl}-benzamide] | > 75 °C (dec.)
18 | O=C1NC(=O)C(Cc2ccc(N3CCC(NC[C@@H](O)c4cccnc4)CC3)cc2)S1 (stereo partly drawn) [Example 131, 5-{4-[4-((2S)-2-Hydroxy-2-pyridin-3-yl-ethylamino)-piperidin-1-yl]-benzyl}-thiazolidine-2,4-dione] | > 88 °C (dec.)
19 | CS(=O)(=O)Nc1cc([C@@H](O)CNC2CCN(c3ccc(COCC(=O)O)cc3)CC2)ccc1O [Example 185, (4-{4-[(2R)-2-Hydroxy-2-(4-hydroxy-3-methanesulfonylamino-phenyl)-ethylamino]-piperidin-1-yl}-benzyloxy)-acetic acid] | > 145 °C (dec.)
20 | O=C1NC(=O)C(Cc2ccc(N3CCC(NC[C@H](O)c4csc(C(F)(F)F)n4)CC3)cc2)S1 (stereo partly drawn) [Example 106, 5-{4-[4-({(2S)-2-Hydroxy-2-[2-(trifluoromethyl)-1,3-thiazol-4-yl]ethyl}amino)piperidine-1-yl]benzyl}-1,3-thiazolidine-2,4-dione] | 108 to 113 °C
21 | CS(=O)(=O)Nc1cc([C@@H](O)CNC2CCN(c3ccc(C(=O)N[C@@H](Cc4ccccc4)C(=O)O)cc3)CC2)ccc1O (as salt: sodium) [Example 205, (2S)-2-(4-{4-[(2R)-2-Hydroxy-2-(4-hydroxy-3-methanesulfonylamino-phenyl)-ethylamino]-piperidin-1-yl}-benzoylamino)-3-phenyl-propionic acid] | > 160 °C (dec.)
22 | CS(=O)(=O)Nc1cc([C@@H](O)CNC2CCN(c3ccc(C(=O)NCC(=O)O)cc3)CC2)ccc1O (as salt: sodium) [Example 197, [(4-{4-[((2R)-2-Hydroxy-2-{4-hydroxy-3-[(methylsulfonyl)amino]phenyl}ethyl)amino]-1-piperidinyl}benzoyl)amino]acetic acid] | > 85 °C (dec.)
23 | CC(C)[C@H](NC(=O)c1ccc(N2CCC(NC[C@H](O)c3ccc(O)c(NS(C)(=O)=O)c3)CC2)cc1)C(=O)O (as salt: sodium) [Example 203, (2S)-2-(4-{4-[(2R)-2-Hydroxy-2-(4-hydroxy-3-methanesulfonylamino-phenyl)-ethylamino]-piperidin-1-yl}-benzoylamino)-3-methyl-butyric acid] | > 135 °C (dec.)
24 | CS(=O)(=O)Nc1cc(C(O)CNC2CCN(c3ccc(C=C4SC(=O)NC4=O)cc3)CC2)ccc1O (centres unmarked) | > 200 °C (dec.)
25 | CS(=O)(=O)Nc1cc(C(O)CNC2CCN(c3ccc(CC4SC(=O)NC4=O)cc3)CC2)ccc1O (centres unmarked) [Example 78] | > 150 °C (dec.)
26 | CC(C)C[C@H](NC(=O)c1ccc(N2CCC(NC[C@H](O)c3ccc(O)c(NS(C)(=O)=O)c3)CC2)cc1)C(=O)O (as salt: sodium) [Example 199, (2S)-2-(4-{4-[(2R)-2-Hydroxy-2-(4-hydroxy-3-methanesulfonylamino-phenyl)-ethylamino]-piperidin-1-yl}-benzoylamino)-4-methyl-pentanoic acid] | > 177 °C (dec.)
27 | Cl.Nc1ccc([C@H](O)CNC2CCN(c3ccc(CC4SC(=O)NC4=O)cc3)CC2)cn1 (some centres unmarked) | 182 °C (dec.)
28 | CS(=O)(=O)Nc1cc([C@@H](O)CNC2CCN(c3ccc(C(=O)N4CCC[C@H]4C(=O)O)cc3)CC2)ccc1O (as salt: sodium) [Example 201, 1-(4-{4-[(2R)-2-Hydroxy-2-(4-hydroxy-3-methanesulfonylamino-phenyl)-ethylamino]-piperidin-1-yl}-benzoyl)-pyrrolidine-(2S)-2-carboxylic acid] | > 220 °C (dec.)
29 | CC(C)S(=O)(=O)Nc1cc([C@@H](O)CNC2CCN(c3ccc(CC4SC(=O)NC4=O)cc3)CC2)ccc1O (stereo partly drawn) [Example 94, (R)-Propane-2-sulfonic acid [5-(2-{1-[4-(2,4-dioxo-thiazolidin-5-ylmethyl)-phenyl]-piperidin-4-ylamino}-1-hydroxy-ethyl)-2-hydroxy-phenyl]-amide] | > 175 °C (dec.)

The next lines start with the values.

Row | melting point | Compound
30 | 87 °C (dec.) | Cc1ccc(OC[C@@H](O)CNC2CCN(c3ccc(CC4SC(=O)NC4=O)cc3)CC2)cn1 (stereo partly drawn) [Example 128, 5-(4-{4-[(2S)-2-Hydroxy-3-(6-methyl-pyridin-3-yloxy)-propylamino]-piperidin-1-yl}-benzyl)-thiazolidine-2,4-dione]
31 | 110 °C | O=C1NC(=O)C(Cc2ccc(N3CCC(NC[C@H](O)c4cc(-c5ccc(Cl)c(Cl)c5)no4)CC3)cc2)S1 (stereo partly drawn) [Example 110, 5-{4-[4-({(2S)-2-[3-(3,4-Dichlorophenyl)isoxazol-5-yl]-2-hydroxyethyl}-amino)piperidine-1-yl}benzyl}-1,3-thiazole-2,4-dione]
32 | 57 to 59 °C | CS(=O)(=O)Nc1ccc(C(O)CNC2CCN(c3ccc(CC4SC(=O)NC4=O)cc3)CC2)cn1 (centres unmarked) (as salt: salt) [Example 138, N-[5-(2-{1-[4-(2,4-Dioxo-thiazolidin-5-ylmethyl)-phenyl]-piperidin-4-ylamino}-1-hydroxy-ethyl)-pyridin-2-yl]-methanesulfonamide]
